These results are taken from patent US20260265265A1, “NOVEL BENZIMIDAZOLONE DERIVATIVE COMPOUND AS AUTOTAXIN INHIBITOR” (LG CHEM, LTD., priority 2023, published 2026).

In this experiment the target is T1, Recombinant Human ENPP-2/Autotaxin (Homo sapiens, UniProt Q13822).
T1 construct: purchased R&D systems 5255-EN
In words: LysoPLD activity measurement (autotaxin enzyme inhibition, choline release, TOOS reagent). The experiment is classed as biochemical. The following applies: LysoPLD inhibitory activity; substrate 14:0 LysoPC; absorbance at 555 nm. The essentials: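 Enzyme and compound were preincubated for 30 min before adding 14:0 LysoPC substrate, diluted to 300 μM, for 90 minutes at 37° C. The choline product was quantified colorimetrically with TOOS reagent. Wells without compound held 1% DMSO.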

As a reminder, the IC50 is the midpoint of a concentration-inhibition curve.

Take `O=C(O)c1cccc(Cn2c(=O)n(-c3ccc(OCC4CCC4)c(F)c3)c3cc(Cl)ccc32)c1` [Example 30, 3-((5-chloro-3-(4-(cyclobutylmethoxy)-3-fluorophenyl)-2-oxo-2,3-dihydro-1H-benzo[d]imidazol-1-yl)methyl)benzoic acid]: the IC50 lay in the range of 100 to 1000 nM.

As for `O=C(O)c1coc(Cn2c(=O)n(-c3ccc(N4CCOCC4)cc3)c3c(F)c(Cl)ccc32)n1` [Example 199, 2-((5-chloro-4-fluoro-3-(4-morpholinophenyl)-2-oxo-2,3-dihydro-1H-benzo[d]imidazol-1-yl)methyl)oxazole-4-carboxylic acid], the IC50 is 100 to 1000 nM.

For the compound `CN(C)c1ccc(-n2c(=O)n(C3(c4cccc(C(=O)O)c4F)CC3)c3ncc(Cl)cc32)cc1` [Example 229, 3-(1-(6-chloro-1-(4-(dimethylamino)phenyl)-2-oxo-1,2-dihydro-3H-imidazo[4,5-b]pyridin-3-yl)cyclopropyl)-2-fluorobenzoic acid], the IC50 is less than 10 nM. `CC1(c2ccc(-n3c(=O)n(C4(c5cccc(C(=O)O)c5)CC4)c4ccc(Cl)cc43)cc2)COC1` [Example 247, 3-(1-(5-chloro-3-(4-(3-methyloxetan-3-yl)phenyl)-2-oxo-2,3-dihydro-1H-benzo[d]imidazol-1-yl)cyclopropyl)benzoic acid]: the IC50 was less than 10 nM. `O=C(O)c1cccc(C2(n3c(=O)n(-c4ccc(Cn5ccc(C(F)(F)F)n5)cc4)c4cc(Cl)ccc43)CC2)c1` [Example 244, 3-(1-(5-chloro-2-oxo-3-(4-((3-(trifluoromethyl)-1H-pyrazol-1-yl)methyl)phenyl)-2,3-dihydro-1H-benzo[d]imidazol-1-yl)cyclopropyl)benzoic acid]: the IC50 lay within 100 to 1000 nM. Next, `CCOc1ccc(-n2c(=O)n(Cc3cccc(C(=O)O)c3)c3ccc(Cl)cc32)cc1` [Example 20, 3-((5-chloro-3-(4-ethoxyphenyl)-2-oxo-2,3-dihydro-1H-benzo[d]imidazol-1-yl)methyl)benzoic acid]: 10 to 100 nM; `C[C@H]1COCCN1C(=O)c1ccc(-n2c(=O)n(C3(c4cccc(C(=O)O)c4)CC3)c3ccc(Cl)cc32)cc1` [Example 127, (S)-3-(1-(5-chloro-3-(4-(3-methylmorpholine-4-carbonyl)phenyl)-2-oxo-2,3-dihydro-1H-benzo[d]imidazol-1-yl)cyclopropyl)benzoic acid]: less than 10 nM; `O=C(O)c1cccc(C2(n3c(=O)n(-c4ccc(S(=O)(=O)NCC5CCC5)cc4)c4cc(Cl)ccc43)CC2)c1` [Example 213, 3-(1-(5-chloro-3-(4-(N-(cyclobutylmethyl)sulfamoyl)phenyl)-2-oxo-2,3-dihydro-1H-benzo[d]imidazol-1-yl)cyclopropyl)benzoic acid]: 10 to 100 nM.

Turning to `CS(=O)(=O)c1ccc(-n2c(=O)n(C3(c4cccc(C(=O)O)c4)CC3)c3ccc(Cl)cc32)cc1` [Example 180, 3-(1-(5-chloro-3-(4-(methylsulfonyl)phenyl)-2-oxo-2,3-dihydro-1H-benzo[d]imidazol-1-yl)cyclopropyl)benzoic acid], the IC50 is less than 10 nM. Regarding `CCC(=O)N1CCC(c2ccc(-n3c(=O)n(Cc4cccc(C(=O)O)c4)c4ccc(Cl)cc43)cc2)CC1` [Example 102, 3-((5-chloro-2-oxo-3-(4-(1-propionylpiperidin-4-yl)phenyl)-2,3-dihydro-1H-benzo[d]imidazol-1-yl)methyl)benzoic acid], the IC50 is 10 to 100 nM.

On to `O=C(O)c1cccc(Cn2c(=O)n(-c3ccccc3)c3cc(Cl)ccc32)c1` [Example 1, 3-((5-chloro-2-oxo-3-phenyl-2,3-dihydro-1H-benzo[d]imidazol-1-yl)methyl)benzoic acid], for which the IC50 lay within 100 to 1000 nM. Next, `O=C(O)c1cc(F)cc(C2(n3c(=O)n(-c4ccc(N5CC6(CCC6)C5)cc4)c4cc(Cl)ccc43)CC2)c1` [Example 196, 3-(1-(3-(4-(2-azaspiro[3.3]heptan-2-yl)phenyl)-5-chloro-2-oxo-2,3-dihydro-1H-benzo[d]imidazol-1-yl)cyclopropyl)-5-fluorobenzoic acid]: 10 to 100 nM; `CN1CCN(Cc2ccc(-n3c(=O)n(C4(c5cccc(C(=O)O)c5)CC4)c4ccc(Cl)cc43)cc2)C1=O` [Example 241, 3-(1-(5-chloro-3-(4-((3-methyl-2-oxoimidazolin-1-yl)methyl)phenyl)-2-oxo-2,3-dihydro-1H-benzo[d]imidazol-1-yl)cyclopropyl)benzoic acid]: less than 10 nM; `O=C(O)c1cccc(C2(n3c(=O)n(-c4ccc(C56CC7CC(CC(C7)C5)C6)cc4)c4cc(Cl)ccc43)CC2)c1` [Example 179, 3-(1-(3-(4-((3r,5r,7r)-adamantan-1-yl)phenyl)-5-chloro-2-oxo-2,3-dihydro-1H-benzo[d]imidazol-1-yl)cyclopropyl)benzoic acid]: 100 to 1000 nM. For `CN(C)c1ccc(-n2c(=O)n(Cc3cccc(C(=O)O)c3)c3ccc(Cl)c(F)c32)cc1` [Example 25, 3-((5-chloro-3-(4-(dimethylamino)phenyl)-4-fluoro-2-oxo-2,3-dihydro-1H-benzo[d]imidazol-1-yl)methyl)benzoic acid], the IC50 was in the range of 10 to 100 nM. In the case of `O=C(O)c1cccc(Cn2c(=O)n(-c3cnn(CC4CC4)c3)c3cc(Cl)ccc32)c1` [Example 90, 3-((5-chloro-3-(1-cyclopropylmethyl-1H-pyrazol-4-yl)-2-oxo-2,3-dihydro-1H-benzo[d]imidazol-1-yl)methyl)benzoic acid], the IC50 was 100 to 1000 nM. Under `O=C(O)c1cccc(Cn2c(=O)n(-c3ccc(N4CCCC4)cc3)c3cc(Cl)ccc32)c1` [Example 29, 3-((5-chloro-2-oxo-3-(4-(pyrrolidin-1-yl)phenyl)-2,3-dihydro-1H-benzo[d]imidazol-1-yl)methyl)benzoic acid] stands 10 to 100 nM; under `O=C(O)c1cccc(Cn2c(=O)n(-c3ccc(N4CCN(C(=O)C5CCC5)CC4)cc3)c3cc(Cl)ccc32)c1F` [Example 142, 3-((5-chloro-3-(4-(4-(cyclobutanecarbonyl)piperazin-1-yl)phenyl)-2-oxo-2,3-dihydro-1H-benzo[d]imidazol-1-yl)methyl)-2-fluorobenzoic acid], 10 to 100 nM; under `O=C(O)c1cccc(Cn2c(=O)n(-c3ccc(N4CCC(F)(F)C4)nc3)c3cc(Cl)ccc32)c1F` [Example 166, 3-((5-chloro-3-(6-(3,3-difluoropyrrolidine-1-yl)pyridin-3-yl)-2-oxo-2,3-dihydro-1H-benzo[d]imidazol-1-yl)methyl)-2-fluorobenzoic acid], 100 to 1000 nM. Next, `O=C(O)c1cccc(Cn2c(=O)n(-c3ccc(N4CCC(F)(F)C4)nc3)c3cc(Cl)ccc32)c1` [Example 80, 3-((5-chloro-3-(6-(3,3-difluoropyrrolidin-1-yl)pyridin-3-yl)-2-oxo-2,3-dihydro-1H-benzo[d]imidazol-1-yl)methyl)benzoic acid]: 100 to 1000 nM. With `CN(C)c1ccc(-n2c(=O)n(Cc3cccc(C(=O)O)c3)c3cc(Cl)cc(F)c32)cc1` [Example 37, 3-((6-chloro-3-(4-(dimethylamino)phenyl)-4-fluoro-2-oxo-2,3-dihydro-1H-benzo[d]imidazol-1-yl)methyl)benzoic acid], the IC50 lay within 100 to 1000 nM. Under `CN1CCN(c2ccc(-n3c(=O)n(Cc4cccc(C(=O)O)c4)c4ccc(Cl)cc43)cc2)CC1` [Example 97, 3-((5-chloro-3-(4-(4-methylpiperazin-1-yl)phenyl)-2-oxo-2,3-dihydro-1H-benzo[d]imidazol-1-yl)methyl)benzoic acid] stands 100 to 1000 nM; under `O=C(O)c1cccc(C2(n3c(=O)n(-c4ccc(C(=O)N5CC(F)(F)C5)cc4)c4cc(Cl)ccc43)CC2)c1` [Example 129, 3-(1-(5-chloro-3-(4-(3,3-difluoroazetidine-1-carbonyl)phenyl)-2-oxo-2,3-dihydro-1H-benzo[d]imidazol-1-yl)cyclopropyl)benzoic acid], less than 10 nM; under `O=C(O)c1cccc(C2(n3c(=O)n(-c4ccc(N5CC(F)(F)C5)cc4)c4cc(Cl)ccc43)CC2)c1` [Example 185, 3-(1-(5-chloro-3-(4-(3,3-difluoroazetidin-1-yl)phenyl)-2-oxo-2,3-dihydro-1H-benzo[d]imidazol-1-yl)cyclopropyl)benzoic acid], less than 10 nM. With `O=C(O)c1cc(F)cc(C2(n3c(=O)n(-c4ccc(N5CC(F)(F)C5)cc4)c4cc(Cl)ccc43)CC2)c1` [Example 194, 3-(1-(5-chloro-3-(4-(3,3-difluoroazetidin-1-yl)phenyl)-2-oxo-2,3-dihydro-1H-benzo[d]imidazol-1-yl)cyclopropyl)-5-fluorobenzoic acid], the IC50 was less than 10 nM. Under `O=C(O)c1cccc(C2(n3c(=O)n(-c4ccc(C5CCCCC5)cc4)c4cc(Cl)ccc43)CC2)c1` [Example 98, 3-(1-(5-chloro-3-(4-cyclohexylphenyl)-2-oxo-2,3-dihydro-1H-benzo[d]imidazol-1-yl)cyclopropyl)benzoic acid] stands 100 to 1000 nM.

With `O=C(O)c1cccc(C2(n3c(=O)n(-c4ccc(CC(=O)N5CCC(F)(F)CC5)cc4)c4cc(Cl)ccc43)CC2)c1` [Example 173, 3-(1-(5-chloro-3-(4-(2-(4,4-difluoropiperidin-1-yl)-2-oxoethyl)phenyl)-2-oxo-2,3-dihydro-1H-benzo[d]imidazol-1-yl)cyclopropyl)benzoic acid], the IC50 fell in the range of 10 to 100 nM. Next, `O=C(O)c1cccc(C2(n3c(=O)n(-c4ccc(S(=O)(=O)N5CCCCC5)cc4)c4cc(Cl)ccc43)CC2)c1` [Example 214]: less than 10 nM. On to `CN1CCOc2cc(-n3c(=O)n(C4(c5cc(F)cc(C(=O)O)c5)CC4)c4ccc(Cl)cc43)ccc21` [Example 255, 3-(1-(5-chloro-3-(4-methyl-3,4-dihydro-2H-benzo[b][1,4]oxazin-7-yl)-2-oxo-2,3-dihydro-1H-benzo[d]imidazol-1-yl)cyclopropyl)-5-fluorobenzoic acid], for which the IC50 is less than 10 nM.
